Assay results reported in patent publication US10836795B2, “Dual functional novel peptide having cell permeability and bone tissue regeneration ability, and use thereof” (SEOUL NATIONAL UNIVERSITY R&DB FOUNDATION, priority 2016, dated 2020).
Where a SMILES comes first, the peptide text is derived from it.

Columns and labels:
[1] = system: dental pulp stem cells; assay: MTT assay, in-vitro cytotoxicity of synthetic peptides; type: cell-based; conditions: 50-2000 μM, 24, 48 and 72 hours
Procedure: A cell viability test was performed to evaluate the cytotoxicity of the peptides set forth in SEQ ID NOS: 1 to 6 synthesized in Example 2 above. For this purpose, dental pulp stem cells were seeded at a density of 9×10^3 cells per well into each well of a 96-well polystyrene plate in a Dulbecco's Modified Eagle's Medium (Gibco, USA) supplemented with 10% FBS (fetal bovine serum) and a 1% antibiotic-antimycotic solution (Thermo Fisher Scientific, USA), and then cultured for 24 hours. Each well was treated with various concentrations (50 μM, 100 μM, 200 μM, 400 μM, 500 μM, 800 μM, 1000 μM and 2000 μM) of the peptides set forth in SEQ ID NOS: 1 to 6. After 24 hours (1 day), 48 hours (2 days) and 72 hours (3 days), an MTT assay was performed to identify the cytotoxicity of the peptides. For the MTT assay, the medium was removed 24 hours, 48 hours, and 72 hours after treatment with peptide and each well was then treated with a mixture of 180 μl of a DMEM medium and 20 μl of a MTT solution, followed by further culturing for 1 hour. One hour later, the mixed solution was removed, each well was treated with 200 μl of dimethyl sulfoxide (DMSO) and the mixed solution was then transferred into a new 96-well plate and the cytotoxicity thereof was measured. All values were expressed as mean±standard deviation (SD) for triplicate experiments and the measured values are shown in FIG. 3.

[2] = system: dental pulp stem cells; assay: Cell permeability of FITC-labeled peptides by confocal microscopy; type: cell-based; conditions: for fluorescence expression at highest concentration: 1000 uM; for cell permeation ability / efficiency: 50-1000 μM
Procedure: In order to identify the cell permeability of the peptides set forth in SEQ ID NOS: 1 to 6 synthesized in Example 2, fluorescein isothiocyanate (FITC) was attached to the N-terminus of each peptide. Dental pulp stem cells were seeded at a density of 3×10^4 cells into a 4-well chamber and cultured in DMEM medium for 24 hours for cell stabilization. 24 hours later, the cells were treated with the FITC-labeled peptide at various concentrations (50 μM, 100 μM, 200 μM, 500 μM, 1000 μM) for 30 minutes. The cells were treated with 100 ng/ml of copine 7 protein for 30 minutes in order to compare the cell permeability thereof with the peptide. Then, in order to compare the intracellular permeation behaviors of these peptides or the protein, each well was treated with 4% paraformaldehyde, fixed at room temperature for 10 minutes, treated with 0.5% Triton-X 100, and cultured at room temperature for 15 minutes. Then, the cells were blocked with a buffer solution (PBS) containing 3% bovine serum albumin (BSA) for 30 minutes. In the case of copine 7 protein, a CPNE7 primary antibody was diluted at a ratio of 1:100 in a buffer solution (PBS) containing 1% bovine serum albumin and reacted at 4° C. for 16 hours. A fluorescein isothiocyanate (FITC)-conjugated secondary antibody was diluted at a ratio of 1:200 and reacted at room temperature for 1 hour. Finally, the nuclei-staining dye (Hoechst 33342, blue) was treated at room temperature for 10 minutes and washed with a buffer solution (PBS), and the fluorescence intensity thereof was measured using a confocal scanning microscope (IX 70, Olympus Co, Tokyo, Japan) to determine the degree of expression. All values were expressed as mean±SD of the fluorescence intensities measured in three different areas, and were compared with the control group (no treatment, NT) (*P<0.05).

[3] = system: osteocalcin in dental pulp stem cells (DPSCs); assay: Bone differentiation ability: osteocalcin expression by immunofluorescence; type: cell-based
Procedure: In order to identify the bone differentiation ability of the peptide set forth in SEQ ID NO: 4, which was determined to have the best cell penetration function in Example 4, and the copine 7 protein, expression difference of osteocalcin in dental pulp stem cells (DPSCs) was evaluated.
For this purpose, 1×10^5 DPSCs were suspended in 50 μl of a medium (Dulbecco's Modified Eagle's Medium, Gibco, USA) supplemented with 10% FBS (fetal bovine serum) and a 1% antibiotic-antimycotic solution (Thermo Fisher Scientific, USA) in a 24-well plate. The cells were cultured for 24 hours and then treated with the peptide set forth in SEQ ID NO: 4 at concentrations of 200 μM and 500 μM and the copine 7 protein at a concentration of 100 ng/ml, respectively, while replacing the medium with Differentiation basal medium-Osteogenic (Lonza, USA) supplemented with a supplement (hMSC Osteogenic SingleQuots, Lonza, USA) for 18 days. […] Finally, the cells were treated with the nuclei-staining dye (Hoechst 33342, blue) at room temperature for 10 minutes and washed with buffer (PBS), and the expression level of osteocalcin was determined with a confocal scanning microscope (IX 70, Olympus Co, Tokyo, Japan). All values were expressed as mean±SD of fluorescence intensity measured in three different areas and were compared with the control group (no treatment, NT) (*P<0.05).

[4] = system: skull of a New Zealand white rabbit; assay: Bone regeneration ability of a peptide-containing bone graft material in a rabbit skull defect; type: in vivo; conditions: 3 weeks after graft
Procedure: 20 mg and 40 mg of the peptide shown in SEQ ID NO: 4 were dissolved in 100 μL of purified water, and the solution was added to 0.1 g of a bone graft material, allowed to stand at 4° C. for 24 hours and lyophilized. The copine 7 protein was used as a control group in the same manner as above and was incorporated in amounts of 100 μg and 200 μg in 0.1 g of a bone graft material. A defect part with a diameter of 8 mm was formed in the skull of a New Zealand white rabbit (cuniculus) and implanted with 0.1 g of a bone graft material in each defect part. The periosteum and skin were double-sutured. The animal was sacrificed 3 weeks after graft, and the specimen was fixed in a formalin solution and embedded in tissues to obtain a specimen with a thickness of 20 um. The prepared specimen was stained with basic fuchsin and toluidine blue to prepare a non-decalcified sample. The sample was imaged with an optical microscope and analyzed histologically. All values were expressed as mean±SD (SD) of areas measured in three different samples and compared with copine 7 protein (*P<0.05).

[5] = FITC-labeled peptide, 30 minutes, FIG. 4

| Compound | cytotoxicity (MTT assay) [1] | fluorescence expression at highest concentration [2, 5] | cell permeation ability / efficiency [2, 5] | further results |
| --- | --- | --- | --- | --- |
| CC(C)C[C@H](NC(=O)[C@@H](NC(=O)[C@@H](NC(=O)[C@@H](NC(=O)CNC(=O)[C@H](CO)NC(=O)[C@H](CC(N)=O)NC(=O)[C@H](CCCCN)NC(=O)[C@H](Cc1ccc(O)cc1)NC(=O)[C@@H](N)CO)C(C)C)C(C)C)C(C)C)C(N)=O [SEQ ID NO: 5, SYKNSGVVVL] (H-SYKNSGVVVL-NH2) | intracellularly toxic | – | – | – |
| CC(C)C[C@H](NC(=O)[C@@H](NC(=O)[C@@H](NC(=O)[C@@H](NC(=O)CNC(=O)[C@H](CO)NC(=O)[C@H](CC(N)=O)NC(=O)[C@H](CCCCN)NC(=O)[C@H](Cc1ccc(O)cc1)NC(=O)[C@H](CO)NC(=O)[C@H](CCCNC(=N)N)NC(=O)[C@H](CCCNC(=N)N)NC(=O)[C@H](CCCCN)NC(=O)[C@H](CCC(N)=O)NC(=O)[C@H](CCCCN)NC(=O)[C@H](Cc1ccc(O)cc1)NC(=O)[C@H](CCCCN)NC(=O)[C@@H]1CCCN1C(=O)[C@H](CC(N)=O)NC(=O)[C@@H](N)C(C)C)C(C)C)C(C)C)C(C)C)C(N)=O [SEQ ID NO: 6] (H-VNPKYKQKRRSYKNSGVVVL-NH2) | intracellularly toxic | – | – | – |
| FEEGQAQWDC (Dual functional candidate peptide for cell penetration and bone tissue regeneration) [SEQ ID NO: 2, peptide from copine 7 protein, position 331-340] | – | weak fluorescence | – | – |
| FEEGQAQWDCVNPKYKQKRR (Dual functional candidate peptide for cell penetration and bone tissue regeneration) [SEQ ID NO: 3, peptide from copine 7 protein, position 331-350] | – | – | relatively excellent cell permeation efficiency | – |
| STTFEEMQKA (Dual functional candidate peptide for cell penetration and bone tissue regeneration) [SEQ ID NO: 1, peptide from copine 7 protein, position 321-330] | – | no fluorescence expression | no cell permeation ability | – |
| VNPKYKQKRR (Dual functional peptide for cell penetration and bone tissue regeneration) [SEQ ID NO: 4, peptide from copine 7 protein, position 341-350] | – | – | best cell permeation efficiency | fluorescence at 100 μM ([2]; FITC-labeled peptide, 100 μM, 30 minutes, FIG. 4): had fluorescence; cell permeability compared with copine 7 protein (confocal microscope) ([2]; versus 100 ng/ml copine 7 protein, 30 minutes, FIG. 5A): better cell permeability than the copine 7 protein; quantified fluorescence intensity compared with copine 7 protein ([2]; versus 100 ng/ml copine 7 protein, FIG. 5B): strong fluorescence intensity compared to the copine 7 protein; expression degree of osteocalcin as fluorescence intensity ([3]; 200 μM and 500 μM peptide versus 100 ng/ml group, 18 days, FIG. 6): relatively stronger fluorescence intensity; bone differentiation ability compared with copine 7 protein ([3]; DPSCs, 18 days in osteogenic medium): superior to the copine 7 protein; effect of regenerating new bone at the skull defect part ([4]; bone graft material with 20 mg or 40 mg peptide versus 100 μg or 200 μg copine 7 protein, FIG. 7A): excellent effect of regenerating new bone; bone regeneration area (histomorphometric analysis) ([4]; versus copine 7 protein, FIG. 7B): significantly wider bone regeneration area than the copine 7 protein |
